Measurements taken from article PMC5164944 (Biochemical pharmacology, 2016).
Read-outs that look alike come from different tables or passages of the source. Marks after values point to notes of the source that are not given here.

How the values were obtained:
[1] = Plasma protein binding by ultracentrifugation; type: in vitro ADME, human; conditions: unbound fraction in plasma
[2] = Steady state plasma concentrations in subjects on chronic bupropion XL; conditions: for Mean [I] (Range, n=5): 5 subjects, normalized to 300 mg/day bupropion dose
CYP2D6 [3] = conditions: cited from earlier work
CYP2D6 mRNA [4] = assay: CYP2D6 mRNA in plated human hepatocytes; conditions: for mean CYP2D6 mRNA levels, % of vehicle treated cells: three donors, 72 hours
CYP2D6 mRNA [5] = assay: CYP2D6 mRNA downregulation in HepG2 cells; conditions: for EC50: read-out: EC50 of CYP2D6 mRNA downregulation, 72 hrs
[6] = test system: CYP2D6 protein expression; assay: CYP2D6 protein expression in HepG2 cells; conditions: 72 hrs; for effect on CYP2D6 protein expression: erythrohydrobupropion 5 μM, threohydrobupropion 20 μM, R,R-OH-bupropion 20 μM
CYP2D6 [7] = biological target: T1, CYP2D6 (Homo sapiens, UniProt P10635); assay: CYP2D6 activity in plated human hepatocytes; conditions: after 72 hr treatment
[8] = Media concentrations of bupropion and metabolites in plated human hepatocytes; conditions: for Cmedia at 72 hr: 1 hr incubation after 71 hours treatment; for Cmedia at 1 hr: after 1 hr incubation without pretreatment; for concentration of metabolite formed in bupropion treated cells: plated human hepatocytes treated with bupropion 2.5 μM
CYP2D6 [9] = biological target: T1, CYP2D6; assay: Reversible CYP2D6 inhibition in human liver microsomes; conditions: for effect on CYP2D6 activity: 50 μM test concentration, HLM
[10] = female, human, 2.5 μM
CYP2D6 mRNA [11] = assay: in vitro; conditions: human
CYP2D6 [12] = biological target: T1, CYP2D6; assay: CYP2D6 inhibition in human suspension hepatocytes
[13] = Partitioning into human suspension hepatocytes; conditions: 1 μM, 30 min, total concentrations
CYP2D6 [14] = biological target: T1, CYP2D6; assay: Static prediction of in vivo reversible CYP2D6 inhibition; conditions: for share of the predicted CYP2D6 inhibition in vivo caused by the compound: reversible inhibition only
CYP2D6 [15] = biological target: T1, CYP2D6; conditions: from HepG2 Emax/EC50 and circulating concentrations, 300 mg/day bupropion
CYP3A4 mRNA = CYP3A4 mRNA in plated human hepatocytes; type: cell-based; conditions: 72 hours
[16] = cited from earlier work

T1 sequence (P10635 whole entry): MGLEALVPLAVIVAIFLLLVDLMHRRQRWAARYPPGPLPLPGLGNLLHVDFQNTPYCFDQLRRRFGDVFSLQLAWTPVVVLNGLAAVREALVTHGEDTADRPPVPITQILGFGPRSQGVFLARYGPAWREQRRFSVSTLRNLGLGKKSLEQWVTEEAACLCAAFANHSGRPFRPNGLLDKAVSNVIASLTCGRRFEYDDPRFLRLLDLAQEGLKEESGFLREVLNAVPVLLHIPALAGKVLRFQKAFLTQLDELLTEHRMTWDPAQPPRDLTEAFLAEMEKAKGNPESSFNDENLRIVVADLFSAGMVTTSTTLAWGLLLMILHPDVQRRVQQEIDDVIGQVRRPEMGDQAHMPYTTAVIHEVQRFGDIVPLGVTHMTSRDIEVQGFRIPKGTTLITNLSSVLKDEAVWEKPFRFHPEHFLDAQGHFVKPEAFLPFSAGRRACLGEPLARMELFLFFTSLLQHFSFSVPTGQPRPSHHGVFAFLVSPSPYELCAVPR

C[C@H](NC(C)(C)C)C(=O)c1cccc(Cl)c1 [S-Bupropion, S-bupropion, reference compound]
fu,p (S.D. n=3) [1]: 0.6±0.1
Mean [I] (Range, n=5) ([2]; steady state plasma): 0.08 ^* (0.02–0.11) μM

COc1ccc(C(CN(C)C)C2(O)CCCCC2)cc1 (stereo not shown) [venlafaxine]
fraction metabolized by CYP2D6 (fm) (CYP2D6 [3]): 80%

C[C@@H]1NC(C)(C)CO[C@@]1(O)c1cccc(Cl)c1 [S,S-OH-bupropion]
fu,p (S.D. n=3) [1]: 0.5±0.1
% decrease in CYP2D6 mRNA at 72 hrs (CYP2D6 mRNA [4]): 74%
mean CYP2D6 mRNA levels, % of vehicle treated cells (CYP2D6 mRNA [4]): 26%
maximum decrease in CYP2D6 mRNA (CYP2D6 mRNA [5]; 72 hrs): 85–88%
EC50 (CYP2D6 mRNA [5]): 0.2 µM
downregulation of CYP2D6 protein expression ([6]; 5 μM, western blot): > 50%
Apparent Percent Inhibition at 72 hrs (CYP2D6 [7]): 60 ± 11%
circulating concentration fold higher than S-bupropion ([2]; steady state plasma): ~3 fold
circulating concentration fold lower than threohydrobupropion ([2]; steady state plasma): about 6 fold
Mean [I] (Range, n=5) ([2]; steady state plasma): 0.39 ^* (0.26–0.67) μM
Cmedia at 72 hr ([8]; plated human hepatocytes): 1.5 ± 0.2 µM
Cmedia at 1 hr ([8]; plated human hepatocytes): 1.3 ± 0.1 µM

C[C@@H](NC(C)(C)C)C(=O)c1cccc(Cl)c1 [R-Bupropion, R-bupropion, reference compound]
fu,p (S.D. n=3) [1]: 0.5±0.1
Mean [I] (Range, n=5) ([2]; steady state plasma): 0.22 (0.05–0.34) μM

C[C@@H](NC(C)(C)C)C(=O)c1ccc(O)c(Cl)c1 [4′OH-bupropion, 4′-OH-bupropion]
Mean [I] (Range, n=5) ([2]; steady state plasma): 0.01 µM
effect on CYP2D6 activity (CYP2D6 [9]): no effect

CC(NC(C)(C)C)C(=O)c1cccc(Cl)c1 (stereo not shown) [Bupropion]
reduction of media concentration at the end of the pretreatment ([10]; 71 h): 93%
Cmedia at 72 hr ([10]; 72 h): 1.7 ± 0.5 µM
EC50 at 72 h (CYP2D6 mRNA [11]): 0.21 µM
IC50 (CYP2D6 [12]): 13 µM

C[C@H]1NC(C)(C)CO[C@]1(O)c1cccc(Cl)c1 [OH-bupropion, hydroxybupropion]
cell concentration fold higher than medium [13]: 11 fold
concentration of metabolite formed in bupropion treated cells [8]: 120 nM

CC(NC(C)(C)C)C(O)c1cccc(Cl)c1 (stereo not drawn) [Erythro-hydrobupropion, erythrohydrobupropion]
fu,p (S.D. n=3) [1]: 0.7±0.1
share of the predicted CYP2D6 inhibition in vivo caused by the compound (CYP2D6 [14]): 9%
% decrease in CYP2D6 mRNA at 72 hrs (CYP2D6 mRNA [4]): 80%
mean CYP2D6 mRNA levels, % of vehicle treated cells (CYP2D6 mRNA [4]): 20%
cell concentration fold higher than medium [13]: 9 fold
maximum decrease in CYP2D6 mRNA (CYP2D6 mRNA [5]; 72 hrs): 85%
EC50 (CYP2D6 mRNA [5]): 1.11 µM
effect on CYP2D6 protein expression [6]: slightly less effective
Apparent Percent Inhibition at 72 hrs (CYP2D6 [7]): 93 ± 1%
circulating concentration fold higher than S-bupropion ([2]; steady state plasma): ~3 fold
circulating concentration fold lower than threohydrobupropion ([2]; steady state plasma): about 6 fold
Mean [I] (Range, n=5) ([2]; steady state plasma): 0.29 (0.19–0.41) μM
concentration of metabolite formed in bupropion treated cells [8]: 80 nM
Cmedia at 72 hr ([8]; plated human hepatocytes): 2.1 ± 0.3 µM
Cmedia at 1 hr ([8]; plated human hepatocytes): 1.6 ± 0.1 µM
predicted decrease in CYP2D6 mRNA if compound acted alone at steady state (CYP2D6 [15]): 18%
fold more potent CYP2D6 inhibitor than threohydrobupropion (CYP2D6 [9]; based on IC50 values in HLM): ~10 fold

CNCCCN1c2ccccc2CCc2ccccc21 [desipramine]
fraction metabolized by CYP2D6 (fm) (CYP2D6 [3]): 90%

CC(NC(C)(C)C)C(O)c1ccc(O)c(Cl)c1 (stereo not drawn) [threo-4′OH-bupropion, threo-4′-OH-hydrobupropion]
effect on CYP2D6 activity (CYP2D6 [9]): no effect

C[C@H](NC(C)(C)C)[C@@H](O)c1cccc(Cl)c1 [Threo-hydrobupropion, threohydrobupropion]
fu,p (S.D. n=3) [1]: 1.0±0.1
share of the predicted CYP2D6 inhibition in vivo caused by the compound (CYP2D6 [14]): approximately 21%
% decrease in CYP2D6 mRNA at 72 hrs (CYP2D6 mRNA [4]): 82%
mean CYP2D6 mRNA levels, % of vehicle treated cells (CYP2D6 mRNA [4]): 18%
cell concentration fold higher than medium [13]: 11 fold
maximum decrease in CYP2D6 mRNA (CYP2D6 mRNA [5]; 72 hrs): 78%
fold less potent in downregulating CYP2D6 mRNA than the other compounds (CYP2D6 mRNA [5]; based on EC50): 10–50 fold
EC50 (CYP2D6 mRNA [5]): 9.95 µM
Apparent Percent Inhibition at 72 hrs (CYP2D6 [7]): 92 ± 2%
steady state concentration fold higher than erythrohydrobupropion ([2]; average steady state plasma): 7.2 fold
Mean [I] (Range, n=5) ([2]; steady state plasma): 2.1 (1.1–3.5) μM
concentration of metabolite formed in bupropion treated cells [8]: 1400 nM
Cmedia at 72 hr ([8]; plated human hepatocytes): 8.2 ± 1.4 µM
Cmedia at 1 hr ([8]; plated human hepatocytes): 7.1 ± 0.6 µM
predicted decrease in CYP2D6 mRNA if compound acted alone at steady state (CYP2D6 [15]): 14%

C[C@H]1NC(C)(C)CO[C@]1(O)c1cccc(Cl)c1 [R,R-OH-bupropion]
fu,p (S.D. n=3) [1]: 0.5±0.1
fold higher I/Ki than S,S-OH-bupropion (CYP2D6 [14]): 36 fold
share of the predicted CYP2D6 inhibition in vivo caused by the compound (CYP2D6 [14]): 65%
change in CYP3A4 mRNA (CYP3A4 mRNA): significantly increased CYP3A4 mRNA
R,R-OH-bupropion to S,S-OH-bupropion ratio ([16]; single dose AUCs): 44–65
circulating concentration fold higher than bupropion and S,S-OH-bupropion ([16]; single dose of bupropion): up to 65 fold
% decrease in CYP2D6 mRNA at 72 hrs (CYP2D6 mRNA [4]): 72%
mean CYP2D6 mRNA levels, % of vehicle treated cells (CYP2D6 mRNA [4]): 28%
effect on CYP2D6 mRNA (CYP2D6 mRNA [5]; 5-50 μM, 72 hrs): weakest effect
effect on CYP2D6 protein expression [6]: no effect
Apparent Percent Inhibition at 72 hrs (CYP2D6 [7]): 83 ± 3%
steady state concentration ratio R,R-OH-bupropion / S,S-OH-bupropion ([2]; steady state plasma): 13 fold
Mean [I] (Range, n=5) ([2]; steady state plasma): 5.0 (3.0–9.4) μM
Cmedia at 72 hr ([8]; plated human hepatocytes): 19 ± 3 µM
Cmedia at 1 hr ([8]; plated human hepatocytes): 16 ± 1 µM
reduction of media concentration at the end of the pretreatment ([8]; plated human hepatocytes, versus initial media concentration added): 33%
fold more potent CYP2D6 inhibitor than S,S-OH-bupropion (CYP2D6 [9]; based on IC50 values in HLM): 3 fold
